Test results: PubChem BioAssay (NCI)
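Here, GI50 denotes the concentration required for 50% inhibition of growth. TGI marks complete inhibition of growth.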

Columns and labels:
Test in all cases: inhibition of tumour cell growth, NCI panel, 384-well format
A549 NSCLC = tested on: A549 NSCLC
NCI-H460 NSCLC = tested on: NCI-H460 NSCLC
NCI/ADR-RES ovarian = tested on: NCI/ADR-RES ovarian
SK-MEL-28 melanoma = tested on: SK-MEL-28 melanoma
SF-295 CNS = tested on: SF-295 CNS
MDA-MB-435 melanoma = tested on: MDA-MB-435 melanoma
786-0 renal = tested on: 786-0 renal
HL-60(TB) leukemia = tested on: HL-60(TB) leukemia
HCT-15 colon = tested on: HCT-15 colon
COLO 205 colon = tested on: COLO 205 colon
A498 renal = tested on: A498 renal
SNB-19 CNS = tested on: SNB-19 CNS
LOX IMVI melanoma = tested on: LOX IMVI melanoma
OVCAR-8 ovarian = tested on: OVCAR-8 ovarian
OVCAR-3 ovarian = tested on: OVCAR-3 ovarian
BT-549 breast = tested on: BT-549 breast
PC-3 prostate = tested on: PC-3 prostate
RXF 393 renal = tested on: RXF 393 renal
NCI-H226 lung = tested on: NCI-H226 lung
MDA-MB-468 breast = tested on: MDA-MB-468 breast
KM12 colon = tested on: KM12 colon
K-562 leukemia = tested on: K-562 leukemia
HOP-62 NSCLC = tested on: HOP-62 NSCLC
EKVX NSCLC = tested on: EKVX NSCLC
ACHN renal = tested on: ACHN renal
SF-268 CNS = tested on: SF-268 CNS
SN12C renal = tested on: SN12C renal
IGROV1 ovarian = tested on: IGROV1 ovarian

With `FC(F)(F)c1ccc(Nc2nc(-c3c(C(F)(F)F)nc4ccccn34)cs2)cc1` as the compound, how does the TGI (A549 NSCLC) read?
Its TGI is 3740 nM.

And the GI50 (NCI-H460 NSCLC)?
The GI50 was 30.2 nM.

And the TGI (NCI-H460 NSCLC)?
Its TGI is 83.3 nM.

What about the GI50 (NCI/ADR-RES ovarian) of the same compound?
Its GI50 is 19.5 nM.

And the TGI (NCI/ADR-RES ovarian)?
The TGI was 42.4 nM.

And the GI50 (SK-MEL-28 melanoma)?
Its GI50 is 52.1 nM.

What about the TGI (SK-MEL-28 melanoma) of the same compound?
Its TGI is 5080 nM.

What about the GI50 (SF-295 CNS) of the same compound?
The GI50 was 32.1 nM.

And the TGI (SF-295 CNS)?
Its TGI is 356 nM.

And the GI50 (MDA-MB-435 melanoma)?
Its GI50 is 12.8 nM.

What about the TGI (MDA-MB-435 melanoma) of the same compound?
The TGI was 33.2 nM.

What about the GI50 ([…]-0 renal) of the same compound?
Its GI50 is 32.7 nM.

And the TGI (786-0 renal)?
Its TGI is 1220 nM.

And the GI50 (HL-60(TB) leukemia)?
The GI50 was 14.7 nM.

And the TGI (HL-60(TB) leukemia)?
The TGI was 28.4 nM.

What about the GI50 (HCT-15 colon) of the same compound?
The GI50 was 32.4 nM.

And the TGI (HCT-15 colon)?
The TGI was 1320 nM.

And the GI50 (COLO 205 colon)?
Its GI50 is 26.5 nM.

What about the TGI (COLO 205 colon) of the same compound?
Its TGI is 67.1 nM.

What about the GI50 (A498 renal) of the same compound?
The GI50 was 32.7 nM.

And the TGI (A498 renal)?
Its TGI is 1240 nM.

And the GI50 (SNB-19 CNS)?
The GI50 was 47.1 nM.

What about the TGI (SNB-19 CNS) of the same compound?
The TGI was 1960 nM.

What about the GI50 (LOX IMVI melanoma) of the same compound?
The GI50 was 48.4 nM.

And the TGI (LOX IMVI melanoma)?
Its TGI is 2210 nM.

What about the GI50 (OVCAR-8 ovarian) of the same compound?
The GI50 was 35.7 nM.

What about the TGI (OVCAR-8 ovarian) of the same compound?
Its TGI is 1150 nM.

What about the GI50 (OVCAR-3 ovarian) of the same compound?
The GI50 was 16.6 nM.

What about the TGI (OVCAR-3 ovarian) of the same compound?
Its TGI is 39.1 nM.

And the GI50 (BT-549 breast)?
Its GI50 is 39.1 nM.

And the TGI (BT-549 breast)?
The TGI was 1240 nM.

What about the GI50 (PC-3 prostate) of the same compound?
The GI50 was 32.6 nM.

What about the TGI (PC-3 prostate) of the same compound?
The TGI was 1820 nM.

And the GI50 (RXF 393 renal)?
Its GI50 is 13.4 nM.

And the TGI (RXF 393 renal)?
Its TGI is 42.8 nM.

What about the GI50 (NCI-H226 lung) of the same compound?
Its GI50 is 30.2 nM.

And the TGI (NCI-H226 lung)?
Its TGI is 86.7 nM.

What about the GI50 (MDA-MB-468 breast) of the same compound?
Its GI50 is 161 nM.

And the TGI (MDA-MB-468 breast)?
The TGI was 310 nM.

What about the GI50 (KM12 colon) of the same compound?
Its GI50 is 24.4 nM.

What about the TGI (KM12 colon) of the same compound?
Its TGI is 1080 nM.

And the GI50 (K-562 leukemia)?
Its GI50 is 27.6 nM.

And the TGI (K-562 leukemia)?
The TGI was 89.8 nM.

What about the GI50 (HOP-62 NSCLC) of the same compound?
Its GI50 is 33.5 nM.

What about the TGI (HOP-62 NSCLC) of the same compound?
Its TGI is 1440 nM.

What about the GI50 (EKVX NSCLC) of the same compound?
Its GI50 is 43.2 nM.

And the TGI (EKVX NSCLC)?
The TGI was 2390 nM.

What about the GI50 (ACHN renal) of the same compound?
The GI50 was 88.9 nM.

What about the TGI (ACHN renal) of the same compound?
The TGI was 3190 nM.

What about the GI50 (SF-268 CNS) of the same compound?
The GI50 was 35.4 nM.

And the TGI (SF-268 CNS)?
Its TGI is 1430 nM.

And the GI50 (SN12C renal)?
Its GI50 is 38.6 nM.

What about the TGI (SN12C renal) of the same compound?
The TGI was 2400 nM.

And the GI50 (IGROV1 ovarian)?
The GI50 was 73.2 nM.

What about the TGI (IGROV1 ovarian) of the same compound?
The TGI was 7330 nM.
